Molecular target: IDH1 R132H enzyme (Homo sapiens (Human), UniProt O75874, R132H)
Assay: Mutant IDH1 R132H biochemical assay
Conditions: NADPH consumption, luminescent readout; 1.5 nM enzyme, 1 μM NADPH, 250 μM α-KG, 30 minutes, 32° C.
Method: NADPH consumption was measured by luminescent readout. […] The final DMSO concentration was 2.4%. […] Luminescence was measured on a luminescent reader (10 seconds measuring time, 1 second integration period, 30% sensitivity). The decrease in luminescence is proportional to mIDH1 activity. IC50 values are determined by interpolation from plots of relative luminescence versus inhibitor concentration.

IDH1 R132H enzyme, sequence (O75874 whole entry R132H): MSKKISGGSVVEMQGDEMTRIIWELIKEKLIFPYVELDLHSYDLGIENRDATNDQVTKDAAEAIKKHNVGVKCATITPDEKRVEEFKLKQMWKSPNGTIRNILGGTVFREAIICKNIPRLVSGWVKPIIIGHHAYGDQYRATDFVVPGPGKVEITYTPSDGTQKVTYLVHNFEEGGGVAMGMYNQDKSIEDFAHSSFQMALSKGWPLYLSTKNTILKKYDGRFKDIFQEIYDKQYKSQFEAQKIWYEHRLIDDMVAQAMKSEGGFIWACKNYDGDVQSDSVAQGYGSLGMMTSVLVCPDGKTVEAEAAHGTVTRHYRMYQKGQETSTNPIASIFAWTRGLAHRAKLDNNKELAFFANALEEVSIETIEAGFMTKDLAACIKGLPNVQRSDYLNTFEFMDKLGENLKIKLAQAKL

| Structure (SMILES) | IC50 [nM] |
| --- | --- |
| Cc1ccc(Cc2nc3cc(C(=O)O)ccc3n2[C@@H]2C[C@H](C)CC(C)(C)C2)cc1 (stereo in doubt) [Example 2-36] | 580 |
| C[C@H]1C[C@@H](n2c(Cc3ccc(OC(F)(F)F)cc3)nc3cc(C(=O)O)c(OCC(F)(F)F)cc32)CC(C)(C)C1 (stereo in doubt) [Example 2-47] | 1000 |
| COC(=O)c1cc2nc(Cc3ccc(OC(F)(F)F)cc3)n([C@H]3C[C@@H](C)CC(C)(C)C3)c2cc1OC(C)C (single isomer, unassigned) [Example 2-20-2, methyl 6-(propan-2-yloxy)-2-[4-(trifluoromethoxy)benzyl]-1-[(cis)-3,3,5-trimethylcyclohexyl]-1H-benzimidazole-5-carboxylate] | 3300 |
| COC(=O)c1ccc2c(c1)nc(C(C)c1ccc(OC(F)(F)F)cc1)n2[C@H]1C[C@@H](C)CC(C)(C)C1 (single isomer, unassigned) [Reference compound 2-4-1, methyl 2-{1-[4-(trifluoromethoxy)phenyl]ethyl}-1-[(cis)-3,3,5-trimethylcyclohexyl]-1H-benzimidazole-5-carboxylate, reference compound] | > 10000 |
| COC(=O)c1ccc2c(c1)nc(Cc1ccc(C(C)(C)C)cc1)n2[C@H]1C[C@@H](C)CC(C)(C)C1 (racemic) [Example 2-11, (±) methyl 2-(4-tert-butylbenzyl)-1-[(cis)-3,3,5-trimethylcyclohexyl]-1H-benzimidazole-5-carboxylate] | 1400 |
| COC(=O)c1ccc2c(c1)nc(Cc1ccc(C)cc1)n2[C@H]1C[C@@H](C)CC(C)(C)C1 (racemic) [Example 2-10, (±) methyl 2-(4-methylbenzyl)-1-[(cis)-3,3,5-trimethylcyclohexyl]-1H-benzimidazole-5-carboxylate] | 1500 |
| COC(=O)c1ccc2c(c1)nc(C(C)c1ccc(OC(F)(F)F)cc1)n2[C@H]1C[C@@H](C)CC(C)(C)C1 (single isomer, unassigned) [Reference compound 2-4-2, methyl 2-{1-[4-(trifluoromethoxy)phenyl]ethyl}-1-[(cis)-3,3,5-trimethylcyclohexyl]-1H-benzimidazole-5-carboxylate, reference compound] | > 10000 |
| CC(C)Oc1ccc(Cc2nc3cc(C#N)ccc3n2[C@H]2C[C@@H](C)CC(C)(C)C2)cc1 (racemic) [Example 2-24, (±) 2-[4-(propan-2-yloxy)benzyl]-1-[(cis)-3,3,5-trimethylcyclohexyl]-1H-benzimidazole-5-carbonitrile] | 1500 |
| COC(=O)c1ccc2c(c1)nc(Cc1ccc(F)cc1)n2[C@H]1C[C@@H](C)CC(C)(C)C1 (racemic) [Example 2-9, (±) methyl 2-(4-fluorobenzyl)-1-[(cis)-3,3,5-trimethylcyclohexyl]-1H-benzimidazole-5-carboxylate] | 4200 |
| COC(=O)c1ccc2c(c1)nc(Cc1ccc(OC(F)(F)F)cc1)n2[C@H]1C[C@@H](C)CC(C)(C)C1 (racemic) [Example 2-3, (±) methyl 2-[4-(trifluoromethoxy)benzyl]-1-[(cis)-3,3,5-trimethylcyclohexyl]-1H-benzimidazole-5-carboxylate] | 670 |
| Cc1nc(-c2ccccc2)sc1Cc1nc2cc(C(=O)O)ccc2n1[C@@H]1C[C@H](C)CC(C)(C)C1 (stereo in doubt) [Example 2-41] | 2300 |
| C[C@H]1C[C@@H](n2c(Cc3ccc(OC(F)(F)F)cc3)nc3cc(C(=O)O)c(OCC(F)(F)F)cc32)CC(C)(C)C1 (stereo in doubt) [Example 2-47-1] | 2000 |
| C[C@@H]1C[C@H](n2c(Cc3ccc(OC(F)(F)F)cc3)nc3cc(C(=O)O)c(OCC(F)(F)F)cc32)CC(C)(C)C1 (stereo in doubt) [Example 2-47-2] | 650 |
| C[C@H]1C[C@@H](n2c(C(C)(C)c3ccc(OC(F)(F)F)cc3)nc3cc(C(=O)O)ccc32)CC(C)(C)C1 (stereo in doubt) [Example 2-31] | 3800 |
| C[C@H]1C[C@@H](n2c(Cc3ccccc3OC(F)(F)F)nc3cc(C(=O)O)ccc32)CC(C)(C)C1 (stereo in doubt) [Example 2-39] | 5000 |
| COC(=O)c1ccc2c(c1)nc(Cc1cccc(OC(F)(F)F)c1)n2[C@H]1C[C@@H](C)CC(C)(C)C1 (racemic) [Example 2-14, (±) methyl 2-[3-(trifluoromethoxy)benzyl]-1-[(cis)-3,3,5-trimethylcyclohexyl]-1H-benzimidazole-5-carboxylate] | 10000 |
| CC(C)Oc1cc2c(cc1C(=O)O)nc(Cc1ccc(OC(F)(F)F)cc1)n2[C@H]1C[C@@H](C)CC(C)(C)C1 (stereo in doubt) [Example 2-46-2] | 500 |
| COC(=O)c1ccc2c(nc(Cc3ccc(OC(F)(F)F)cc3)n2C2CC(C)(C)CC(C)(C)C2)c1F [Example 2-22, methyl 4-fluoro-1-(3,3,5,5-tetramethylcyclohexyl)-2-[4-(trifluoromethoxy)benzyl]-1H-benzimidazole-5-carboxylate] | 800 |
| CC(C)c1ccc(Cc2nc3cc(C#N)ccc3n2[C@H]2C[C@@H](C)CC(C)(C)C2)cc1 (racemic) [Example 2-25, (±) 2-[4-(propan-2-yl)benzyl]-1-[(cis)-3,3,5-trimethylcyclohexyl]-1H-benzimidazole-5-carbonitrile] | 350 |
| COC(=O)c1ccc2c(c1)nc(-c1ccc(OC(F)(F)F)cc1)n2[C@H]1C[C@@H](C)CC(C)(C)C1 (single isomer, unassigned) [Example 2-1-1, methyl 2-[4-(trifluoromethoxy)phenyl]-1-[(cis)-3,3,5-trimethylcyclohexyl]-1H-benzimidazole-5-carboxylate] | 1000 |
| COC(=O)c1ccc2c(c1)nc(Cc1ccc(OC(C)C)cc1)n2[C@H]1C[C@@H](C)CC(C)(C)C1 (racemic) [Example 2-6, (±) methyl 2-[4-(propan-2-yloxy)benzyl]-1-[(cis)-3,3,5-trimethylcyclohexyl]-1H-benzimidazole-5-carboxylate] | 1500 |
| C[C@H]1C[C@@H](n2c(Cc3cccc(OC(F)(F)F)c3)nc3cc(C(=O)O)ccc32)CC(C)(C)C1 (stereo in doubt) [Example 2-40] | 1800 |
| COC(=O)c1cc2nc(Cc3ccc(OC(F)(F)F)cc3)n([C@H]3C[C@@H](C)CC(C)(C)C3)c2cc1OC(C)C (racemic) [Example 2-20, (±) methyl 6-(propan-2-yloxy)-2[4-(trifluoromethoxy)benzyl]-1-[(cis)-3,3,5-trimethylcyclohexyl]-1H-benzimidazole-5-carboxylate] | 2800 |
| COC(=O)c1cc2nc(Cc3ccc(OC(F)(F)F)cc3)n([C@H]3C[C@@H](C)CC(C)(C)C3)c2cc1OC(C)C (single isomer, unassigned) [Example 2-20-1, methyl 6-(propan-2-yloxy)-2-[4-(trifluoromethoxy)benzyl]-1-[(cis)-3,3,5-trimethylcyclohexyl]-1H-benzimidazole-5-carboxylate] | 1300 |
| COC(=O)c1ccc2c(c1)nc(C(C)c1ccc(OC(F)(F)F)cc1)n2[C@H]1C[C@@H](C)CC(C)(C)C1 (single isomer, unassigned) [Reference compound 2-4-3, methyl 2-{1-[4-(trifluoromethoxy)phenyl]ethyl}-1-[(cis)-3,3,5-trimethylcyclohexyl]-1H-benzimidazole-5-carboxylate, reference compound] | 5000 |

Source: patent publication US10179123B2, “2-aryl- and 2-arylalkyl-benzimidazoles as mIDH1 inhibitors” (BAYER PHARMA AKTIENGESELLSCHAFT, priority 2015, dated 2019)
